Source: article PMC9233675, “Ru(II) photocages enable precise control over enzyme activity with red light” (Nature Communications, 2022)
Values joined by “and” are separate entries in the source; they are usually repeats but may differ in a detail not shown here. Equal entries are not always repeated. Where two headings read alike, the source gives them in different places.

Key:
[1] = target: T1, CYP1A1 (Homo sapiens, UniProt P04798); experiment: In cell activity assay for CYP1A1 (7-ethoxyresorufin conversion, HEK293 T-Rex cells); conditions: for % Enzyme Activity: CYP1A1, dark; for SI (1B1:1A1): ratio of IC50 CYP1A1 to CYP1B1, for complexes 4–6 the IC50 (light) values were used; for IC50: REE
T1 sequence (P04798 1-512): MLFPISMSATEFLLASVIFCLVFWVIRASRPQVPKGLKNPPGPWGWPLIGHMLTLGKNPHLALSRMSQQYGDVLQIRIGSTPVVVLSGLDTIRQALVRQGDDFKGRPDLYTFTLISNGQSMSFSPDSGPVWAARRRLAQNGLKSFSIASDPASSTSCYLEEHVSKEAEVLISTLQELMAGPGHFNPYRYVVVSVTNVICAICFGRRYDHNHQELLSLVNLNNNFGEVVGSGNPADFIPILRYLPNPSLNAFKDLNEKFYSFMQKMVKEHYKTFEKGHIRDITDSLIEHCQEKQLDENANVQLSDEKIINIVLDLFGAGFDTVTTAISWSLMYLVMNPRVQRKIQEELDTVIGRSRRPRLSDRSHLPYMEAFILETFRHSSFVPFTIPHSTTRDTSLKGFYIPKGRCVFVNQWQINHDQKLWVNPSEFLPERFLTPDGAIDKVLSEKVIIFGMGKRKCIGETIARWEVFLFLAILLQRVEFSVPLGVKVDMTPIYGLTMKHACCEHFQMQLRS
Excerpt: A stable HEK cell line was created with CYP1B1 expression under the control of tetracycline to facilitate regulated and titratable expression (see the Methods section for more details). A cell line was also created for CYP1A1 as a counter screen to evaluate selectivity. […] The fluorogenic substrate, 7-ethoxyresorufin (REE), is a validated substrate for both CYPs and was used in both assays. Cytochrome P450 oxidoreductase (POR) is the required reductase partner for CYPs, and was also overexpressed in these systems to improve catalytic efficiency and the resulting signal for the assay.
Both the CYP and POR expression was under the control of the TetO2 inducible CMV promoter[26].
Cell lines were generated in the HEK293 T-Rex cell line. Following transfection, cells were selected with 500 μg/mL Zeocin, and 7.5 μg/mL Blasticidin to create a stable pool. Inducible expression of CYP and POR was confirmed by immunoblot. […] The lines were maintained with 250 μg/mL Zeocin and 7.5 μg/mL Blasticidin to ensure continued selective pressure.
(§3) Cell lines were seeded onto Geltrex coated 96-well plates at 40,000 cells/well, and grown overnight in DMEM media containing 1 μg/mL tetracycline. The media was then replaced with Opti-MEM supplemented with 2% FBS and 1 μg/mL tetracycline. Compounds were serially diluted in Opti-MEM supplemented with 2% FBS and 1 μg/mL tetracycline and an equal volume of compound added to the cells (n = 3). Following a 1 h incubation, resorufin ethyl ether (REE; for CYP1B1 and 1A1) or dibenzylfluorescein (DBF; for 19A1) was added to the cells for a total concentration of 5 μM for REE and 1 μM for DBF. […] Dose–response curves were generated in Prism and normalized using the no-compound control (set as 100% activity) and the no-cell control (set as 0% activity; this value in the raw data reflects the background fluorescence of the dye alone).
For the light-activated compounds, the experiment was modified as follows: Cells were seeded and grown overnight as described above. Media was replaced with L-15 containing 1 μg/mL tetracycline; L-15 media was used in place of opti-MEM™ to maintain CO2 outside the incubator, and to prevent cellular damage from light. Compounds were serially diluted in L-15 with 1 μg/mL tetracycline and added to the cells followed by a 1 h incubation. […] REE or DBF was added as described above.

[2] = Stability of compounds in rat liver microsomes; conditions: for Remaining, % (NCF=60min): rat liver microsomes, no co-factor (no NADPH); for CLint scaled / Remaining, % (T=60min) / half-life / microsomal CLint: rat, liver microsomes
[3] = target: T2, CYP1B1 Q332E (Homo sapiens, UniProt Q16678, Q332E); experiment: In cell CYP1B1 activity assay, Q332E variant; conditions: for logSI Q332E: log of the ratio of IC50 values mutant vs WT (Fig. 3c)
T2 sequence (Q16678 1-543 Q332E): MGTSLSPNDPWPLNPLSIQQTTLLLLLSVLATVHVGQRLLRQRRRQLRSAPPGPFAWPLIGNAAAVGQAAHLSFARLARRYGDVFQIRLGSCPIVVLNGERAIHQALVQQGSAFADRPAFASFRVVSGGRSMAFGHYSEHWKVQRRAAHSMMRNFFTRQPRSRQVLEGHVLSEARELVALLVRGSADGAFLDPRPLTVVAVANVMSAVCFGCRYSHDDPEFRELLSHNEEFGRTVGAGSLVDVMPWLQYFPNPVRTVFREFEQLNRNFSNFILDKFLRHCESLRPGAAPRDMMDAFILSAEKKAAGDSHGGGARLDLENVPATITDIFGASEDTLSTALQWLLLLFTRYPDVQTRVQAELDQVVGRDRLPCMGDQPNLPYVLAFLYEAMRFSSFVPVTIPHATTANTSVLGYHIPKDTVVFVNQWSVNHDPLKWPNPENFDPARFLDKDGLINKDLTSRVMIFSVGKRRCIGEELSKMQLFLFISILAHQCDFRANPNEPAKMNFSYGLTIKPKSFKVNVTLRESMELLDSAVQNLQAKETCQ
Excerpt: Site directed mutagenesis was used to probe the importance of specific active-site contacts identified through the structural assessment (Fig. 3a, b) and simulations. In all cases, conservative mutations were made to maintain polar or hydrophobic character and approximate size. The aromatic residues that frame the inhibitor binding site, Phe143 and Phe231, were mutated to Leu to determine the importance of the π interactions. In addition, the Ser127 residue, located in the upper corner of the active site on the B-C loop, was chosen for mutation based on the simulations. This amino acid transiently contacts the inhibitors, but also forms a hydrogen bond with Asp326 of the I-helix, and thus may impact the position of this helix with regards to the B-C loop. […] Rather than directly mutating these residues in the I-helix, neighboring residues Gln332 and Asp333 were targeted, with the hope of interrupting amino acid interactions that position the helix within the active site.
The ratio of IC50 values for the WT vs. the mutant are shown in Fig. 3c and reflects the importance of the specific contact; the log of the value is used to aid in visualization.
as §3

[4] = tested on: cytochrome P450 enzymes in pooled human liver microsomes; experiment: Inhibition of cytochrome P450 enzymes in pooled human liver microsomes (phLM); type: biochemical; conditions: human, pooled human liver microsomes, pH 7.8, probe 7-benzoyloxy-4-trifluoromethylcoumarin, 50 µM; Dark; conversion of 7-benzoyloxy-4-trifluoromethylcoumarin
Excerpt: (§1) Pooled human liver microsomes were used to test the potential impact of the inhibitors on multiple polymorphisms of highly promiscuous, drug metabolizing CYPs[27]. There are more than 10 different CYPs in this preparation, and the use of pooled microsomes ensures that genetic variability in CYPs is represented. […] This is notable, as the liver CYPs have evolved to bind the widest possible variety of molecules.
(§2) Commercial preparations of pooled human liver microsomes come from 50 individuals, providing representation of biologically relevant CYP variants. Compounds were screened for inhibition of cytochrome P450 enzymes in phLMs using a 96-well kinetic assay. […] Compound stocks were diluted in dose–response, and added in 100 mM potassium phosphate buffer pH 7.8 with 50 µM 7-benzoyloxy-4-trifluoromethylcoumarin (Corning, prepared as a 10 mM DMSO stock) and 16 µg of phLMs (XenoTech, prepared as 20 mg protein/mL suspended in 250 mM sucrose) per well (n = 3). The compounds were incubated for 5 min in the absence of light at 25 °C. The 96-well plate was then either protected from light or irradiated with red light for 1 h (660 nm, 58.7 J/cm^2). Enzymatic turnover was initiated upon addition of NADPH (TCI, prepared immediately prior to addition) at a concentration 1.2 mM per well. To determine background fluorescence from the assay, NADPH was omitted from several control wells. The reactions were immediately placed in a SpectraFluor Plus plate reader (Tecan) preheated to 37 °C, and fluorescence measurements taken every 3 min for 120 min with excitation of 435 nm and emission of 525 nm. Fluorescence measurements in the […], and the data was processed with GraphPad Prism 6. The linear portion of the signal for each dose point with respect to time was first fitted to a line to determine the rate. The resulting slope of these lines was then plotted against the logarithmic concentration of the study compound to provide a dose–response curve.

[5] = tested on: cytochrome P450 enzymes in phLMs; experiment: as above; type: biochemical; conditions: for SI (1B1:phLM): ratio of IC50 phLM to CYP1B1, for complexes 4–6 IC50 (light); for enzyme activity pHLM: dark, scale 0–100
Excerpt: as §1, §2

[6] = read-out: IC50 CYP1A1 Dark, Dark, n = 3
[7] = read-out: IC50 CYP1A1 Light, Light: 660 nm, 58.7 J/cm^2
[8] = Dark, conversion of 7-benzoyloxy-4-trifluoromethylcoumarin, read-out: IC50 phLM Dark
[9] = Light: 660 nm, 58.7 J/cm^2, read-out: IC50 phLM Light

Row | Compound | % Enzyme Activity ([1]; Log Conc 0.045757) | % Enzyme Activity ([1]; Log Conc 0.522879) | % Enzyme Activity ([1]; Log Conc 1) | % Enzyme Activity ([1]; Log Conc -0.43136) | % Enzyme Activity ([1]; Log Conc -0.90849) | % Enzyme Activity ([1]; Log Conc -1.38561) | % Enzyme Activity ([1]; Log Conc -1.86273) | % Enzyme Activity ([1]; Log Conc -2.33985) | Remaining, % (NCF=60min) [2] [%] | logSI Q332E [3] | IC50 [4] [µM] | SI (1B1:1A1) [1] | CLint scaled [2] [mL/min/kg] | Remaining, % (T=60min) [2] [%] | half-life [2] [min] | microsomal CLint [2] [µL/min/mg] | SI (1B1:phLM) [5] | IC50 [1, 6] [µM] | IC50 [1, 7] [µM] | IC50 [5, 8] [µM] | also measured
1 | COc1cc(/C=C/c2ccc(OC)cc2OC)cc(OC)c1 [Compound 1, reference compound] | 58.9151% and 62.8214% and 61.5139% | 20.9441% and 25.477% and 27.5679% | 2.088% and 2.407% and 5.1678% | 94.4495% and 93.088% and 89.9544% | 109.334% and 103.31% and 104.553% | 108.032% and 102.127% and 103.391% | 103.764% and 105.887% and 103.748% | 105.601% and 99.1121% and 95.2869% | 63.7 | 0.6 | 11 |  |  |  |  |  |  |  |  |  | 
2 | COc1ccc(/C=C/c2ccncn2)c(OC)c1 [Compound 2] | 97.5755% and 125.129% and 102.858% | 79.4229% and 93.0687% and 81.8125% | 15.2494% and 25.1537% and 27.5852% | 110.341% and 133.598% and 109.681% | 118.484% and 126.806% and 121.555% | 117.981% and 113.967% and 112.29% | 107.668% and 117.038% and 124.375% | 98.3615% and 101.034% and 100.604% | 47.1 | 0.7 | 1.18 | 175 | 369 | 0.3 | 6.75 | 205 | 16 |  |  |  | IC50 [3]: 0.402 µM; Ratio IC50 (mutant)/ IC50 (WT), Q332E [3]: 5.3
3 | COc1ccc(C=Cc2ccncc2)c(OC)c1 [Compound 3] | 84.2841% and 102.432% and 105% | 59.4676% and 67.9492% and 76.5686% | 14.8056% and 20.3883% and 24.2847% | 103.457% and 112.898% and 125.706% | 103.209% and 120.806% and 117.825% | 95.9953% and 108.125% and 129.481% | 106.428% and 95.389% and 98.1832% |  | 108.6 | 2.2 | 0.334 |  | 241 | 1.4 | 10.4 | 134 |  |  |  |  | % Enzyme Activity ([1]; Log Conc 1.47712): 0.5263% and 0.2508% and 0.3665%
4 | COc1ccc(/C=C/c2cc[n+]([Ru-4]345([n+]6ccccc6-c6cccc([n+]63)-c3cccc[n+]34)[n+]3c(cc(C(=O)[O-])c4ccccc43)-c3cc(C(=O)[O-])c4ccccc4[n+]35)cn2)c(OC)c1 [Compound 5] |  |  |  |  |  |  |  |  |  |  |  | 460 |  |  |  |  | ∼1750 | 40.9 | 7.82 | > 30 | impact on CYP1A1 ([1]; at concentrations ≥10 μM (so in the source)): no impact; IC50 [5, 9]: ~30 µM
5 | COc1ccc(/C=C/c2cc[n+]([Ru-4]345([n+]6ccccc6-c6cccc([n+]63)-c3cccc[n+]34)[n+]3c(cc(C(=O)[O-])c4ccccc43)-c3cc(C(=O)[O-])c4ccccc4[n+]35)cc2)c(OC)c1 [Compound 6] |  |  | 101.782% and 110.804% |  |  |  |  |  |  |  |  | >100,000 |  |  |  |  | 4300 | > 30 | > 30 | ~30 | % Enzyme Activity ([1]; Log Conc 0.39794): 91.0522% and 92.8898%; % Enzyme Activity ([1]; Log Conc -0.20412): 95.4892% and 97.456%; % Enzyme Activity ([1]; Log Conc -0.80618): 104.418% and 113.985%; % Enzyme Activity ([1]; Log Conc -1.40824): 109.608% and 108.283%; % Enzyme Activity ([1]; Log Conc -2.0103): 108.509% and 109.086%; % Enzyme Activity ([1]; Log Conc -2.61236): 100.346% and 103.098%; % Enzyme Activity ([1]; Log Conc -3.21442): 102.096% and 97.9039%; IC50 [5, 9]: 1.28 µM; enzyme activity pHLM ([5]; Log conc 0.273001): 89.9976; enzyme activity pHLM ([5]; Log conc 0.875061): 84.6565; enzyme activity pHLM ([5]; Log conc 1.47712): 45.9092; enzyme activity pHLM ([5]; Log conc -0.329059): 93.178; enzyme activity pHLM ([5]; Log conc -0.931119): 88.2981; enzyme activity pHLM ([5]; Log conc -1.53318): 91.697; enzyme activity pHLM ([5]; Log conc -2.13524): 93.7121
